Results published in ChEMBL document CHEMBL5120978, “Application of Compositions Comprising a KRAS G12C Inhibitor and an EGFR Inhibitor for the Potential Treatment of Cancer” (2022).

Legend:
Type in all cases: functional
[1] = test system: NCI-H2122; experiment: Anti-tumor activity against human NCI-H2122 cells xenografted with nude mouse assessed as inhibition of tumor growth inhibition at 50 mg/kg, po QD for 21 days relative to control; settings: NCI-H2122, 504 h, time 21 day, read-out: TGI
[2] = Anti-tumor activity against human PDX CR6256 cells xenografted with nude BALB/c mouse assessed as inhibition of tumor growth inhibition at 30 mg/kg, po QD for 21 days co-treated with 20 mg/kg, ip QD Cetuximab relative to control; settings: PDX CR6256, 504 h, time 21 day, read-out: TGI
[3] = test system: NCI-H2122; experiment: Anti-tumor activity against human NCI-H2122 cells xenografted with nude mouse assessed as inhibition of tumor growth inhibition at 50 mg/kg, po QD for 21 days co-treated with 50 mg/kg, po QD Erlotinib relative to control; settings: NCI-H2122, 504 h, time 21 day, read-out: TGI

SMILES | inhibition in vivo at 50 mg/kg [1] | inhibition in vivo at 30 mg/kg [2] | inhibition in vivo at 50 mg/kg [3]
C=CC(=O)N1CCN(c2nc(OC[C@@H]3CCCN3C)nc3c(F)c(-c4nc(N)cc(C)c4C(F)(F)F)c(Cl)cc23)[C@@H](C)C1 [DIVARASIB] | 93% | 133% | 117%
C#Cc1cccc(Nc2ncnc3cc(OCCOC)c(OCCOC)cc23)c1 [ERLOTINIB] | 48% |  | 
